The values below come from publication PMC7026418, “The kinase polypharmacology landscape of clinical PARP inhibitors” (Scientific Reports, 2020).

Targets include CDK4 (Homo sapiens, UniProt P11802); INSR (Homo sapiens, UniProt P06213); MAP3K4 (Homo sapiens, UniProt Q9Y6R4); PIK3C2B (Homo sapiens, UniProt O00750); PLK3 (Homo sapiens, UniProt Q9H4B4).
What all share (assay): biochemical
What all share (design): DiscoveRx KINOMEscan active site-directed competition binding; percent of control kinase bound to immobilised ligand

The target of the next assay is T1, BMPR2 (Homo sapiens, UniProt Q13873).
T1 sequence (Q13873 1-1038): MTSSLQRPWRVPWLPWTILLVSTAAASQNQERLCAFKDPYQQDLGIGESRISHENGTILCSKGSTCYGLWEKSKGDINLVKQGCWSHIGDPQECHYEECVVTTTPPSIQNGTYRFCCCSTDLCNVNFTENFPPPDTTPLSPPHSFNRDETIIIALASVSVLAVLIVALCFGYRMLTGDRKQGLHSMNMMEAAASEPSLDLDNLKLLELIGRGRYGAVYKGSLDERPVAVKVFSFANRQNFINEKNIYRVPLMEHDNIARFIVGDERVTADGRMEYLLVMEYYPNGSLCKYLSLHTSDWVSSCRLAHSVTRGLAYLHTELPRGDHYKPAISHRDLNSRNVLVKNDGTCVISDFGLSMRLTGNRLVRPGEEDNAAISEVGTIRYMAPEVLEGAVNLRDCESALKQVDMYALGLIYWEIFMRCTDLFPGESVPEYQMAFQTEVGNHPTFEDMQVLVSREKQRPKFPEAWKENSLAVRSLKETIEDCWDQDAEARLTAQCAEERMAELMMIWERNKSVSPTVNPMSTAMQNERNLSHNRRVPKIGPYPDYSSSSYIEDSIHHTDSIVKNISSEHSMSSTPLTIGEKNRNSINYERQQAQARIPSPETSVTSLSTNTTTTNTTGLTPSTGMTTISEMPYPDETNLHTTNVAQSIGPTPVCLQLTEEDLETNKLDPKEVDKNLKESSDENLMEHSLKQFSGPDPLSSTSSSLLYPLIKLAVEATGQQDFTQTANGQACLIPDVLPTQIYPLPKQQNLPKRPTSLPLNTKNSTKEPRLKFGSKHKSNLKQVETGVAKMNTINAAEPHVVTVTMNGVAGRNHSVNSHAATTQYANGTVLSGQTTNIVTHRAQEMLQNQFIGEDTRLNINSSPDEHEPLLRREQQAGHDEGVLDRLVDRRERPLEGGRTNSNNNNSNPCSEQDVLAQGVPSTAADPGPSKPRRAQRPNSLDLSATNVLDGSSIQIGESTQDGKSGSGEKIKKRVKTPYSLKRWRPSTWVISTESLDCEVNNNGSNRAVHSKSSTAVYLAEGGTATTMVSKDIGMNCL

The target in a further assay is T2, IKK-beta (Homo sapiens, UniProt O14920).
T2 construct: gene IKBKB
T2 sequence (O14920 1-756): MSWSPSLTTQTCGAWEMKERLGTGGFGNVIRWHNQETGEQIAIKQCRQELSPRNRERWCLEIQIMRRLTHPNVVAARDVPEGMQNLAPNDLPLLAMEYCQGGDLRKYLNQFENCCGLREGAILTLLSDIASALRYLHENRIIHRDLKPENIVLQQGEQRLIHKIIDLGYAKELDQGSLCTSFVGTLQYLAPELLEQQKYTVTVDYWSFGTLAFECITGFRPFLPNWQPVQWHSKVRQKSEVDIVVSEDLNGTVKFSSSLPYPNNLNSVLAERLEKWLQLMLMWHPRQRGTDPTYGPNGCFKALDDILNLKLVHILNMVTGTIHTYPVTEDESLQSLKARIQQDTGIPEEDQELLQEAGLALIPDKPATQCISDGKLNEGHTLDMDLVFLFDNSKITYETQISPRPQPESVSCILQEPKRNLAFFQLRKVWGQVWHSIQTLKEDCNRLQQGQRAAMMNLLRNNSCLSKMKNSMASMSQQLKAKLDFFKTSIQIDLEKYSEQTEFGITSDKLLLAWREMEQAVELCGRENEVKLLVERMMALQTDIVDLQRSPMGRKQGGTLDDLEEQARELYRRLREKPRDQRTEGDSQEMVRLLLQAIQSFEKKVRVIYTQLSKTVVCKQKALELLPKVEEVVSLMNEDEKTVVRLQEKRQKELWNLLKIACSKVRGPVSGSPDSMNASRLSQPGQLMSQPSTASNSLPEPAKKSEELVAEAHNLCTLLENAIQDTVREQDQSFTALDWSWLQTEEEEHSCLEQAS

Another assay concerns the target T3, PRKR (Homo sapiens, UniProt P19525).
T3 construct: gene EIF2AK2

The mark [1] stands for this setting: read-out: Niraparib (MK-4827) / %Ctrl @ 10000nM.
[2] abbreviates: read-out: Talazoparib (BMN 673) / %Ctrl @ 10000nM.
[3] abbreviates: read-out: Rucaparib / %Ctrl @ 10000nM, binding competition, % of control.
Setting [4] is: read-out: Olaparib / %Ctrl @ 10000nM.

Like-named read-outs stand apart in the source and are kept apart here.

MAP3K4, sequence (Q9Y6R4 whole entry): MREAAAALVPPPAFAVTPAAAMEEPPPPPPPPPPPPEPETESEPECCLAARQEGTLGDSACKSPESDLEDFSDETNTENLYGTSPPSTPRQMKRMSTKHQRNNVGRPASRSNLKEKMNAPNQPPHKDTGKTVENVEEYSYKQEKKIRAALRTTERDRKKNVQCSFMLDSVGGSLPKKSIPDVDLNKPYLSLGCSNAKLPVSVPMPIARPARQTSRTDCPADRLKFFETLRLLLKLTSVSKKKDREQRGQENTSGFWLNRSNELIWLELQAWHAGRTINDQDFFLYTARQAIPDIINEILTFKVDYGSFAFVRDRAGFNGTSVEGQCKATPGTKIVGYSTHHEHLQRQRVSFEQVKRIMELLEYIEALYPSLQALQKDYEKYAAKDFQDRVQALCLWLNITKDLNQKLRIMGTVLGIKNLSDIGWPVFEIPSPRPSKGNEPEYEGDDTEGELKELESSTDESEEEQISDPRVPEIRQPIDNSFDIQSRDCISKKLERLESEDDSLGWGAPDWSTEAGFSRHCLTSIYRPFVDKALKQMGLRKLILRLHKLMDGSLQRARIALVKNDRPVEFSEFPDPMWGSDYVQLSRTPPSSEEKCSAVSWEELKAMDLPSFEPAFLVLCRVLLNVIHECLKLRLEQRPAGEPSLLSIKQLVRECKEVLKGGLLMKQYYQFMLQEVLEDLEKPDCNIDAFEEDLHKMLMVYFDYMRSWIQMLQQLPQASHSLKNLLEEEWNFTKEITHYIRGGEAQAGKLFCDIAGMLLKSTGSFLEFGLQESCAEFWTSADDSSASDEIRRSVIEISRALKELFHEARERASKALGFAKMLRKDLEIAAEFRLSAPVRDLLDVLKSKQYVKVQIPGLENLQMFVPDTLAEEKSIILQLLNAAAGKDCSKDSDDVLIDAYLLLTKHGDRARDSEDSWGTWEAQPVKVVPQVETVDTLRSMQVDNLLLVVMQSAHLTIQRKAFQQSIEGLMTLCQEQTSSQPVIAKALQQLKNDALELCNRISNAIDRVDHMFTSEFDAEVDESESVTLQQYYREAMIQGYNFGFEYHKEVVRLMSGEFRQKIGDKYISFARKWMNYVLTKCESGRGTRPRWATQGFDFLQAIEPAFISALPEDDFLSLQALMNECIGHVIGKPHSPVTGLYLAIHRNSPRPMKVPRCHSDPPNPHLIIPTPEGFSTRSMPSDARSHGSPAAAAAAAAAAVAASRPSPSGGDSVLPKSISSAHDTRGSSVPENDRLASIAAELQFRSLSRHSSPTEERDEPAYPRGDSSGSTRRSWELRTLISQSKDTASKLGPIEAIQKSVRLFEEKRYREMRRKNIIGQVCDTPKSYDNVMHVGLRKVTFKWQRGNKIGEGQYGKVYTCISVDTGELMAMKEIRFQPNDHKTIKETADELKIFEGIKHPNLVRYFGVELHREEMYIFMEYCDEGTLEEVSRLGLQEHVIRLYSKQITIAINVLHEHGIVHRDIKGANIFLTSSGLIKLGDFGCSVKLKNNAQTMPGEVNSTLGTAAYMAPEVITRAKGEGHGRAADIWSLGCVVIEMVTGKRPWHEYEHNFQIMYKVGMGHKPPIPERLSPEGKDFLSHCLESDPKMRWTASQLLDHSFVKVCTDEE
INSR, sequence (P06213 whole entry): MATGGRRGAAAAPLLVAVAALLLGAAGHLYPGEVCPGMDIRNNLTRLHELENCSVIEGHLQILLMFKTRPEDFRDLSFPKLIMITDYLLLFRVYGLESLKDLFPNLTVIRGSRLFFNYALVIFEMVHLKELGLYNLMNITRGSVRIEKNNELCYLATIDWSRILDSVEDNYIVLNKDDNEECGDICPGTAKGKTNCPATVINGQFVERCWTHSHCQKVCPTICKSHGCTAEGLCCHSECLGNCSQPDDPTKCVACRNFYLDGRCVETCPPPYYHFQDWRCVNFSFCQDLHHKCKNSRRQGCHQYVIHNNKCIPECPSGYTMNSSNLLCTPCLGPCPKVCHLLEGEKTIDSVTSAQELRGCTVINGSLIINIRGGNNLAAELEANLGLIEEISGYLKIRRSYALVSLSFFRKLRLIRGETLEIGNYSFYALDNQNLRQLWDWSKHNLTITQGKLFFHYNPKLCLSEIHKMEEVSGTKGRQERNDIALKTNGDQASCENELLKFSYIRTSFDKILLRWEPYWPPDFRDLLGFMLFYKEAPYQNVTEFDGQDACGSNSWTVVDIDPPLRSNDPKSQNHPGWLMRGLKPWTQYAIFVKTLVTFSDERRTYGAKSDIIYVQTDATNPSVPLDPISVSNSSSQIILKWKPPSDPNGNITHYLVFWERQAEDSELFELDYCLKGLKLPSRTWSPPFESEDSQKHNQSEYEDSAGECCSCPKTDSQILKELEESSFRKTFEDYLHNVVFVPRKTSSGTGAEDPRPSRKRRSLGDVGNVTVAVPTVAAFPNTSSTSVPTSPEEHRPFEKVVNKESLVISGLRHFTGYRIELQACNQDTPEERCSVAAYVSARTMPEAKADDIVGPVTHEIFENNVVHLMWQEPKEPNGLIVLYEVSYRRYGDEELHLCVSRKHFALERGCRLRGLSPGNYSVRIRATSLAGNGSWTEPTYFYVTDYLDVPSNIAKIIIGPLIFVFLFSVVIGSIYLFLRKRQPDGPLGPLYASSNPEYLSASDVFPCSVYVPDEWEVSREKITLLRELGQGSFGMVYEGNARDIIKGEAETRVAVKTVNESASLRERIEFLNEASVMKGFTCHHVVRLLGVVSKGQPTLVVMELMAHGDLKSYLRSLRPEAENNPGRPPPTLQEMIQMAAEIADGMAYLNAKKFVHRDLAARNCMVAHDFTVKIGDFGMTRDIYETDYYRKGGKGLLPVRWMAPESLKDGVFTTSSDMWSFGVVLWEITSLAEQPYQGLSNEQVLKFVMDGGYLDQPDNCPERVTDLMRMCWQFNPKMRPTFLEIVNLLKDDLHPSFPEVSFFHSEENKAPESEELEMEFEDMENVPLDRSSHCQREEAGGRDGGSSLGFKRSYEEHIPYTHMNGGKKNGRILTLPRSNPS
CDK4, sequence (P11802 whole entry): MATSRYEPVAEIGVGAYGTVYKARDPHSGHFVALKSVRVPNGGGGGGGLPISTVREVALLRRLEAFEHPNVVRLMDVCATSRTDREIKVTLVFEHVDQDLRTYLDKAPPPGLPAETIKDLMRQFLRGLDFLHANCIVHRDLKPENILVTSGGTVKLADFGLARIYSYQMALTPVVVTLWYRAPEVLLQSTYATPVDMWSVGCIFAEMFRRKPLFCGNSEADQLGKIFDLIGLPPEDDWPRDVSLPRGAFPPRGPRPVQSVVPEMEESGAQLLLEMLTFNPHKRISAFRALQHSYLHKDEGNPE
PIK3C2B, sequence (O00750 whole entry): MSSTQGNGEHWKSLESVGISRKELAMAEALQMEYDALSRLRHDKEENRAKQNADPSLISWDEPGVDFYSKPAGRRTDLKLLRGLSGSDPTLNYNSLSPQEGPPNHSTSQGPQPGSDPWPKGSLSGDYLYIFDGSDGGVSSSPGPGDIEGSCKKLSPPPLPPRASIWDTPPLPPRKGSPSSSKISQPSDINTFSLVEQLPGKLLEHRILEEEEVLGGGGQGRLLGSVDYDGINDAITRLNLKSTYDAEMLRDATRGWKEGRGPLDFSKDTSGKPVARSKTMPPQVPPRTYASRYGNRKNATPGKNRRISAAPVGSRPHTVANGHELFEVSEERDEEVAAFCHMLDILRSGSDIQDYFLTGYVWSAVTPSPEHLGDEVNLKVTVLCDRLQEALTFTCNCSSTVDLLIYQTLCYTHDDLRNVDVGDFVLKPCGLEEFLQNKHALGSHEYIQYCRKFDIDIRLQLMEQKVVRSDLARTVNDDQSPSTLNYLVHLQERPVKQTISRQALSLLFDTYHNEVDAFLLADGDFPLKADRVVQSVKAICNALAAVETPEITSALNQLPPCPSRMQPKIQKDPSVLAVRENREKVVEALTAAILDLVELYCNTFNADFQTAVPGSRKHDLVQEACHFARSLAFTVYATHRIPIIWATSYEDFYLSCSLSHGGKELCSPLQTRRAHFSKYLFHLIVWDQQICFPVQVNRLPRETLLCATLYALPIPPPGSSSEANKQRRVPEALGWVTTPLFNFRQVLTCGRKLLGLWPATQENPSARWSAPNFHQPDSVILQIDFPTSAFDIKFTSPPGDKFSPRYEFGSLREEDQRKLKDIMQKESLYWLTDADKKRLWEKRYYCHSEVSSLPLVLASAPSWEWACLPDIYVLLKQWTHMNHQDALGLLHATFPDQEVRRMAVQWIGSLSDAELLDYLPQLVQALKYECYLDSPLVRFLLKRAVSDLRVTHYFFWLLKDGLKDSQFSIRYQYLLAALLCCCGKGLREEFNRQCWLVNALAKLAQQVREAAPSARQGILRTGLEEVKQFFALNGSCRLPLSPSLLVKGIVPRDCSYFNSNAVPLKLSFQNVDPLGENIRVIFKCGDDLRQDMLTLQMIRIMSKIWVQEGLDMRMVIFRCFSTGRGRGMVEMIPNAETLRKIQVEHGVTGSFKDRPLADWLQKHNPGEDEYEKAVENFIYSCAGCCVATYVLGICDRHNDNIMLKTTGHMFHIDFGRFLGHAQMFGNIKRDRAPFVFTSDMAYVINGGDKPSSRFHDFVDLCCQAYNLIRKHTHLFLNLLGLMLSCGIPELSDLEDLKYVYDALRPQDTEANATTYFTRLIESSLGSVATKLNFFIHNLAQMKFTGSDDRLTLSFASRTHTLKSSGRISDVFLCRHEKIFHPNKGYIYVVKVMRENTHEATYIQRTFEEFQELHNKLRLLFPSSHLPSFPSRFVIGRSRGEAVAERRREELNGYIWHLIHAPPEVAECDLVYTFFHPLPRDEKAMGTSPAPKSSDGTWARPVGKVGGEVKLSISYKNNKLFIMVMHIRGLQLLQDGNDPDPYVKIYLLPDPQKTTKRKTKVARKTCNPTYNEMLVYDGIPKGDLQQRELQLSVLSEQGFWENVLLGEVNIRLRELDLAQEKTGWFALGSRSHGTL

With `NC(=O)c1cccc2cn(-c3ccc([C@@H]4CCCNC4)cc3)nc12` [Niraparib], the percent of control binding at 10 µM is 96% on BMPR2 (setting [1]); 100% on CDK4 (setting [1]); 100% at IKK-beta (setting [1]); 86% on INSR (setting [1]); 94% on MAP3K4 (setting [1]); 100% at PIK3C2B (setting [1]). The percent of control binding at 10 µM at PLK3 (setting [1]) stood at 85%; at PRKR (setting [1]) it was 91%.
Turning to `Cn1ncnc1[C@H]1c2n[nH]c(=O)c3cc(F)cc(c23)N[C@@H]1c1ccc(F)cc1` [Talazoparib], the percent of control binding at 10 µM at BMPR2 (setting [2]) worked out at 100%; on CDK4 (setting [2]), 100%; at IKK-beta (setting [2]), 95%; at INSR (setting [2]), 62%; on MAP3K4 (setting [2]) it was 90%; at PIK3C2B (setting [2]) it was 67%. The percent of control binding at 10 µM on PLK3 (setting [2]) turned out to be 90%; at PRKR (setting [2]), 78%.
With `CNCc1ccc(-c2[nH]c3cc(F)cc4c3c2CCNC4=O)cc1` [Rucaparib], the percent of control binding at 10 µM on BMPR2 (setting [3]) turned out to be 83%; at CDK4 (setting [3]), 94%; on IKK-beta (setting [3]), 35%; on INSR (setting [3]), 86%; on MAP3K4 (setting [3]), 100%; on PIK3C2B (setting [3]), 98%. The results for the percent of control binding at 10 µM on PLK3 (setting [3]) and on PRKR (setting [3]) were 60% and 76%, respectively.
With `O=C(c1cc(Cc2n[nH]c(=O)c3ccccc23)ccc1F)N1CCN(C(=O)C2CC2)CC1` [Olaparib], the percent of control binding at 10 µM at BMPR2 (setting [4]) turned out to be 80%; at CDK4 (setting [4]), 85%; on IKK-beta (setting [4]) it was 72%; at INSR (setting [4]), 85%; on MAP3K4 (setting [4]), 100%; on PIK3C2B (setting [4]), 100%. Also, the percent of control binding at 10 µM at PLK3 (setting [4]) is 98%; at PRKR (setting [4]), 94%.
